From US20100152434A1, “Protein Kinase-binding Nucleosides and Associated Methods” (priority 2007, published 2010)

What was measured:
[1] = biological target: MINK (Homo sapiens, UniProt Q8N4C8); assay: Ambit kinase phage display ATP-binding-site ligand binding assay; conditions: read-out: percent inhibition of binding
Description: (§1) This assay is based on ligand-affinity/protein kinase phage display and was employed essentially as described by Fabian et. al [Nature Biotech. […] In this assay, protein kinases are cloned into T7 bacteriophage which express the kinase fusion proteins on the phage capsid. T7 kinase-tagged phage are then screened for binding to ATP-binding-site ligands that have been immobilized on a solid support. Phage are screened for binding to the anchored ligands both in the presence of test compound and in its absence (control). Elution of the bound phage by free ligand (ATP-binding site ligand that is not immobilized on a solid support) followed by determination of the phage titre provides a reliable measure of the ability of test compounds to block binding of target kinases to resin-bound ATP-binding-site ligands.
(§2) T7 kinase-tagged phage strains were grown in parallel in microtiter plates in a proprietary bacterial host derived from E. Coli strain BL21. E. Coli were grown to a log phase, infected with T7 kinase-tagged phage, and incubated while shaking at 32° C. until bacterial lysis (approx. 90 min). Lysates were centrifuged (6,000 g) and filtered (0.2 μm). […] The phage titre of the eluates was measured by quantitative PCR or by plaque assays. […]

[2] = biological target: MST1 (Homo sapiens, UniProt Q13043); assay: as above; conditions: read-out: percent inhibition of binding
Description: (§3) In this assay, protein kinases are cloned into T7 bacteriophage which express the kinase fusion proteins on the phage capsid. T7 kinase-tagged phage are then screened for binding to ATP-binding-site ligands that have been immobilized on a solid support. Phage are screened for binding to the anchored ligands both in the presence of test compound and in its absence (control). Elution of the bound phage by free ligand (ATP-binding site ligand that is not immobilized on a solid support) followed by determination of the phage titre provides a reliable measure of the ability of test compounds to block binding of target kinases to resin-bound ATP-binding-site ligands.
(§4) T7 kinase-tagged phage strains were grown in parallel in microtiter plates in a proprietary bacterial host derived from E. Coli strain BL21. E. Coli were grown to a log phase, infected with T7 kinase-tagged phage, and incubated while shaking at 32° C. until bacterial lysis (approx. 90 min). Lysates were centrifuged (6,000 g) and filtered (0.2 μm). Small molecule ATP-binding-site-specific ligands were anchored to solid supports via a two step process beginning with biotin conjugation followed by treatment of the biotin/small molecule conjugate with streptavidin-coated magnetic beads. […] The phage titre of the eluates was measured by quantitative PCR or by plaque assays. […]

[3] = biological target: EPHA5 (Homo sapiens, UniProt P54756); assay: as above; conditions: read-out: percent inhibition of binding
Description: as §3, §4

[4] = biological target: PAK3 (Homo sapiens, UniProt O75914); assay: as above; conditions: read-out: % Inhibition of binding to ATP-binding-site ligand
Description: as §1, §2

[5] = biological target: AURORA A (Homo sapiens, UniProt O14965); assay: SignalChem radioisotope protein kinase assay; type: biochemical; conditions: 5 μl of 100 μM stock solution in 25 μl
Description: The various protein kinase targets to be employed in the kinase profiling assay were cloned, expressed and purified in-house at SignalChem (Richmond, BC, Canada) using proprietary methods. Quality control testing is routinely performed on each of the SignalChem targets to ensure compliance to acceptable standards. Protein substrates employed in the target profiling process were synthesized internally. ^33P-ATP was purchased from PerkinElmer. All other materials were of standard grade. Compound 10 (FIG. 4) was supplied to SignalChem in a powder form. It was reconstituted in DMSO to form a stock solution which was then diluted with 10% DMSO to form a working stock solution (100 μM) that was then profiled against the various protein kinase targets. The assay conditions for the various protein kinase targets were optimized to yield acceptable enzymatic activity. In addition, the assays were optimized to give high signal-to-noise ratio.
SignalChem uses a radioisotope assay format for profiling evaluation of protein kinase targets. Protein kinase assays were performed in triplicate at ambient temperature for 20-40 min (depending on the target) in a final volume of 25 μl according to the following assay reaction recipe: • Component 1: 5 μl of diluted active protein kinase target (˜10-40 nM final protein concentration in the assay) • Component 2: 5 μl of stock solution of substrate (1-5 μg of peptide or protein substrate) • Component 3: 5 μl of kinase assay buffer or protein kinase activator in kinase assay buffer • Component 4: 5 μl of Compound 10 (100 μM stock solution) or 10% DMSO • Component 5: 5 μl of 33P-ATP (25 μM stock solution, 0.8 μCi)
The assay was initiated by the addition of ^33P-ATP and the reaction mixture incubated at ambient temperature for 20-40 minutes, depending on the protein kinase target. After the incubation period, the assay was terminated by spotting 10 μl of the reaction mixture onto a Millipore Multiscreen plate. The Millipore Multiscreen plate was washed 3 times for approximately 15 minutes each in a 1% phosphoric acid solution. The radioactivity on the P81 plate was counted in the presence of scintillation fluid in a Trilux scintillation counter. Blank control, which included all the assay components except the addition of the appropriate substrate (replaced with equal volume of assay dilution buffer), was set up for each protein kinase target. The corrected activity for each protein kinase target was determined by removing the blank control value.

[6] = biological target: AURKB (Homo sapiens, UniProt Q96GD4); assay: Ambit kinase phage display ATP-binding-site ligand binding assay; conditions: read-out: percent inhibition of binding
Sequence of AURKB (Q96GD4 whole entry): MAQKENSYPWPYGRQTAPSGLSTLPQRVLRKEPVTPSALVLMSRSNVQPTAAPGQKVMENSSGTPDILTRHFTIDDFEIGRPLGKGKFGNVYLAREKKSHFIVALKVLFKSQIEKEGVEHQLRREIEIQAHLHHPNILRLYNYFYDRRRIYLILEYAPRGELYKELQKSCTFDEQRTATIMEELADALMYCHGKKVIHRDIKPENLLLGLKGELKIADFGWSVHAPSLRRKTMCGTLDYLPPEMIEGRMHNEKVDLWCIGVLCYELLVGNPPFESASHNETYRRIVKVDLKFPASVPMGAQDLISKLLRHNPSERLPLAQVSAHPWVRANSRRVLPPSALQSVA
Description: as §3, §4

[7] = biological target: TXK (Homo sapiens, UniProt P42681); assay: as above; conditions: read-out: percent inhibition of binding
Description: as §1, §2

[8] = biological target: MARK3 (Homo sapiens, UniProt P27448); assay: as above; conditions: read-out: % Inhibition of binding to ATP-binding-site ligand
Description: as §3, §4

[9] = biological target: EGFR(L747-T751del,Sins) (Homo sapiens, UniProt P00533, DEL747-750/T751S); assay: as above; conditions: read-out: percent inhibition of binding
Sequence of EGFR(L747-T751del,Sins) (P00533 with tags, fused parts or gaps DEL747-750/T751S limits assumed): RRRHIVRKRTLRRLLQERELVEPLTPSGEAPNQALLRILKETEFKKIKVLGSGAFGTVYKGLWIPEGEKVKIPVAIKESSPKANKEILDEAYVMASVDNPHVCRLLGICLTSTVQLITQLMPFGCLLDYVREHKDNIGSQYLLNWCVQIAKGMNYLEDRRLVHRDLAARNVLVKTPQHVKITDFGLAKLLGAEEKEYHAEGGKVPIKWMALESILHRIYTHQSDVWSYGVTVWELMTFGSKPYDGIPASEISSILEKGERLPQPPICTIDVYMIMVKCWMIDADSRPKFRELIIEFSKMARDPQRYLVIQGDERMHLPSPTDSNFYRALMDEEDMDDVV
Description: as §1, §2

[10] = biological target: CSNK2A2 (Homo sapiens, UniProt P19784); assay: as above; conditions: read-out: % Inhibition of binding to ATP-binding-site ligand
Sequence of CSNK2A2 (P19784 whole entry): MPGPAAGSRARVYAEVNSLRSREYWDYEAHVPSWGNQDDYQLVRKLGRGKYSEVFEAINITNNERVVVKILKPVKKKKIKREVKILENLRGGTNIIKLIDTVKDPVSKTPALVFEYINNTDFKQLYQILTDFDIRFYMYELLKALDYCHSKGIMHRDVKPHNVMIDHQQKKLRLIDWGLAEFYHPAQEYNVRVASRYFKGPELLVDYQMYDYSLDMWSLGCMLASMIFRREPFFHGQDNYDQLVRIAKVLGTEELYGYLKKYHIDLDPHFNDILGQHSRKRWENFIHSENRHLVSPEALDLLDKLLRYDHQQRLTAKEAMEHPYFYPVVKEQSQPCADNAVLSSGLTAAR
Description: as §1, §2

[11] = biological target: CSF1R (Homo sapiens, UniProt P07333); assay: as above; conditions: read-out: percent inhibition of binding
Description: as §1, §2

[12] = biological target: CDK5 (Homo sapiens, UniProt Q00535); assay: as above; conditions: read-out: percent inhibition of binding
Description: as §3, §4

[13] = biological target: SNF1LK (Homo sapiens, UniProt P57059); assay: as above; conditions: read-out: percent inhibition of binding
Description: as §3, §4

[14] = biological target: HCK (Homo sapiens, UniProt P08631); assay: as above; conditions: read-out: percent inhibition of binding
Description: as §1, §2

[15] = biological target: MEK6 (Homo sapiens, UniProt P52564); assay: as above; conditions: read-out: percent inhibition of binding
Description: as §1, §2

[16] = biological target: MET (Homo sapiens, UniProt P08581); assay: as above; conditions: read-out: percent inhibition of binding
Description: as §1, §2

[17] = biological target: p38-beta (Homo sapiens, UniProt Q15759); assay: as above; conditions: read-out: percent inhibition of binding
Description: as §3, §4

[18] = biological target: PDGFRB (Homo sapiens, UniProt P09619); assay: as above; conditions: read-out: percent inhibition of binding
Sequence of PDGFRB (P09619 33-1106): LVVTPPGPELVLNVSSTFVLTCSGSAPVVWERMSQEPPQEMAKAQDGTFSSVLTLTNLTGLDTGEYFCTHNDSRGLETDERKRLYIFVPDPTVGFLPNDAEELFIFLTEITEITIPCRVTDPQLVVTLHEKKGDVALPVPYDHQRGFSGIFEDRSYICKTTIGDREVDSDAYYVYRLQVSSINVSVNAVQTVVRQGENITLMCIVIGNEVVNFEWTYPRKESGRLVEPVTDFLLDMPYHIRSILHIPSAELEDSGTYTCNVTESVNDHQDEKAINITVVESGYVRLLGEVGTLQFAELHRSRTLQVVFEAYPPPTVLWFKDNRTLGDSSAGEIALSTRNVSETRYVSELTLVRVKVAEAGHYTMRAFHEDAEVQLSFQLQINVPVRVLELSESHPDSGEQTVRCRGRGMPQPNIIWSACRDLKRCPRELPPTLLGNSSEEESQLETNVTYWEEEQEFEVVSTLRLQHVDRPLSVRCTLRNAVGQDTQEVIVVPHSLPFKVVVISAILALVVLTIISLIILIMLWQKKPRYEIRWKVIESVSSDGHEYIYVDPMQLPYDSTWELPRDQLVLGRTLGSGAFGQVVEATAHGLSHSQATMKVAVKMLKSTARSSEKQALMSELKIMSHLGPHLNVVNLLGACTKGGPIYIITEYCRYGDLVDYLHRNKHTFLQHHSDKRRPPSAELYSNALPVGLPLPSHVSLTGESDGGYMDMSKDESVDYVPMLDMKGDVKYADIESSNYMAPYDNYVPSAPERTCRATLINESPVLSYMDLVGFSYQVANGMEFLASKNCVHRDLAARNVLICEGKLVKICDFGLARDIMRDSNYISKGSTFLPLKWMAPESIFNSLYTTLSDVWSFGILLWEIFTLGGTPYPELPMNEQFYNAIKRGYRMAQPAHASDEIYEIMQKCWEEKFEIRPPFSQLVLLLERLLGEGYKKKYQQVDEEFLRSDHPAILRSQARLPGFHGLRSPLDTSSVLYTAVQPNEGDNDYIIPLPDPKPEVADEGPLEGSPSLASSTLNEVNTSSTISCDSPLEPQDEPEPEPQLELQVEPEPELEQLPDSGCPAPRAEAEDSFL
Description: as §3, §4

[19] = biological target: MLK1 (Homo sapiens, UniProt P80192); assay: as above; conditions: read-out: percent inhibition of binding
Sequence of MLK1 (P80192 whole entry): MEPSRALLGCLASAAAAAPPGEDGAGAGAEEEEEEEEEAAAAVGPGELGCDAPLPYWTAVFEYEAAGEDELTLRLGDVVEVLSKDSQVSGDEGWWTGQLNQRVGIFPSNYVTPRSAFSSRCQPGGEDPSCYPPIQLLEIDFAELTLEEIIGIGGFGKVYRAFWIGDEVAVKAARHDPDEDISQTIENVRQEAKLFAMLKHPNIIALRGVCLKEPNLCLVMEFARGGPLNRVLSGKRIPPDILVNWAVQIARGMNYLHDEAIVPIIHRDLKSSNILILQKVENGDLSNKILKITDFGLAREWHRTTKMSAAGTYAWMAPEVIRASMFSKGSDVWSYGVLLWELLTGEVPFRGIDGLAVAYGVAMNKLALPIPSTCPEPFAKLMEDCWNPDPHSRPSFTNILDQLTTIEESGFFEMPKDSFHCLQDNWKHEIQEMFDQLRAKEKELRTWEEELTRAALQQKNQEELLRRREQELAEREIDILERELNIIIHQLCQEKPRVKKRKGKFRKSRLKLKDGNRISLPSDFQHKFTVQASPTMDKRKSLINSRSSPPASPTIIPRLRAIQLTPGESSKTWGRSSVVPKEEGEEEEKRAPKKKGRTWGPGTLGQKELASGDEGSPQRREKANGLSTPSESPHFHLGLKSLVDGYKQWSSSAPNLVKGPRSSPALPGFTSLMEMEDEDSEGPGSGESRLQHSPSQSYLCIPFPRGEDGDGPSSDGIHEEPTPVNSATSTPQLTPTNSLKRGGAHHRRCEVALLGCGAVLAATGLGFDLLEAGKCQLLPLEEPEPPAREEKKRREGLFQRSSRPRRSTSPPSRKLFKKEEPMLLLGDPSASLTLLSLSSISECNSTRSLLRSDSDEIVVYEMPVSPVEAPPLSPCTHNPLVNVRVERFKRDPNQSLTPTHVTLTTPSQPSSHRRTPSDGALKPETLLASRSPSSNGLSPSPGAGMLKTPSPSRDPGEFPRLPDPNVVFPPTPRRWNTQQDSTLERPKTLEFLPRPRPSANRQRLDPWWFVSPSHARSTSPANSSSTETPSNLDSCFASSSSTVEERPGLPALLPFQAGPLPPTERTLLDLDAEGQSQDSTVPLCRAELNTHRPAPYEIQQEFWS
Description: as §3, §4

[20] = biological target: ALK6 (Homo sapiens, UniProt O00238); assay: as above; conditions: read-out: % Inhibition of binding to ATP-binding-site ligand
Sequence of ALK6 (O00238 14-502): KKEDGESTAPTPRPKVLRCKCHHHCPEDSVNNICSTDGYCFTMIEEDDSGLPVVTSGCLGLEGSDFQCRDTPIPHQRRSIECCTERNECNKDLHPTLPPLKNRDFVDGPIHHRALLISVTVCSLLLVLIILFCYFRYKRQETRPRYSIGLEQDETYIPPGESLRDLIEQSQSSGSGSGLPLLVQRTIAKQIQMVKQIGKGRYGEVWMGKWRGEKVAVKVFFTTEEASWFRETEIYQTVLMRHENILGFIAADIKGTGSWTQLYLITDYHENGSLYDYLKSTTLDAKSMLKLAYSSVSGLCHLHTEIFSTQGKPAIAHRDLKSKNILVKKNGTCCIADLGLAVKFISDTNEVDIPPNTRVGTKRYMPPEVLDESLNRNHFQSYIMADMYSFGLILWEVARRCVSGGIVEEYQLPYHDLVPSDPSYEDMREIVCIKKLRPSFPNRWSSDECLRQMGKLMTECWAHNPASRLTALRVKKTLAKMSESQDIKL
Description: as §1, §2

[21] = biological target: FLT3 (Homo sapiens, UniProt P36888); assay: as above; conditions: read-out: % Inhibition of binding to ATP-binding-site ligand
Description: as §1, §2

[22] = biological target: IKK-α (Homo sapiens, UniProt O15111); assay: as above; conditions: read-out: % Inhibition of binding to ATP-binding-site ligand
Description: as §3, §4

[23] = biological target: CLK3 (Homo sapiens, UniProt P49761); assay: as above; conditions: read-out: percent inhibition of binding
Description: as §3, §4

Sequence of MINK (Q8N4C8 whole entry): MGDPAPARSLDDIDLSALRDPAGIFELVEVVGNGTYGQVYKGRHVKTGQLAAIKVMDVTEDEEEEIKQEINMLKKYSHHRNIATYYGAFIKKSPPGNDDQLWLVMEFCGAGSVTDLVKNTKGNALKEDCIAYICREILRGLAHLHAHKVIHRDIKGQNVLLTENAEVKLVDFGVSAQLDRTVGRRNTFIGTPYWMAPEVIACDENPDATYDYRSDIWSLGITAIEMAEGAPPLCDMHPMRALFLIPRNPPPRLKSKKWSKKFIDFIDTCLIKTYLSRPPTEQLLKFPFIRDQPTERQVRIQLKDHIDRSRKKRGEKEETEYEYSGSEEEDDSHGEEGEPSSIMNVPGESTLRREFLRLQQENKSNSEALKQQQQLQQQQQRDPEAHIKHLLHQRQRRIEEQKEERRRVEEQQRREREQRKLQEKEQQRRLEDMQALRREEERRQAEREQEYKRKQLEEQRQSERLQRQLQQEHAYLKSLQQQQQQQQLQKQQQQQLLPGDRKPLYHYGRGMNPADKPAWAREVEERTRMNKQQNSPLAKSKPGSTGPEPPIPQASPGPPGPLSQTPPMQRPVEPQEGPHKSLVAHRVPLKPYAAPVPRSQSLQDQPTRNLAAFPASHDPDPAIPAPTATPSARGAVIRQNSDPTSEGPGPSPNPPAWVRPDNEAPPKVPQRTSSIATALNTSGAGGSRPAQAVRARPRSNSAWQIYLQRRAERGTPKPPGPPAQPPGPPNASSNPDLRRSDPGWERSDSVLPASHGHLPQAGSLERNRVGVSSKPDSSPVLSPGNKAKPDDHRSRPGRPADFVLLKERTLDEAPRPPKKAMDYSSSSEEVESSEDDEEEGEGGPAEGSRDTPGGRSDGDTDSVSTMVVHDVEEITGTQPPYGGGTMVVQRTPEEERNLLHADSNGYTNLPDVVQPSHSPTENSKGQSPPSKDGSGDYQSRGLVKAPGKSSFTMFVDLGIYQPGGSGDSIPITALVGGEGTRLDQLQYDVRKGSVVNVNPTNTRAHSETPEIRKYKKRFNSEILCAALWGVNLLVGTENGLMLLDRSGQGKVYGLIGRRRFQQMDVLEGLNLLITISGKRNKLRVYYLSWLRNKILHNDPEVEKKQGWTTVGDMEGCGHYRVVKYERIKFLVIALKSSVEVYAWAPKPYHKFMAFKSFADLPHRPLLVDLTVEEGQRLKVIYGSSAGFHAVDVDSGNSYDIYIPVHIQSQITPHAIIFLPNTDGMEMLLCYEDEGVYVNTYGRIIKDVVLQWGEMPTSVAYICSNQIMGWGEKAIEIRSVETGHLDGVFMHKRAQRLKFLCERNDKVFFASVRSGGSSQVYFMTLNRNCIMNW

`CCOC(=O)C[C@@H]1C(O[Si](C)(C)C(C)(C)C)[C@H](n2cnc3c(NC(=O)Nc4ccccc4)ncnc32)O[C@@H]1CNC(=O)NC` (some centres unmarked) [Compound 10] gave an inhibition at 10 µM [1] of 20 to 29%, an inhibition at 10 µM [2] of 20 to 29% and an inhibition at 10 µM [3] of 20 to 29%. For the same compound, the inhibition at 10 µM [4] was 33%, the “% Activity Change” value [5] was 1% and the inhibition at 10 µM [6] was 20 to 29%. For the same compound, the inhibition at 10 µM [7] was 20 to 29%, the inhibition at 10 µM [8] was 34% and the inhibition at 10 µM [9] was 20 to 29%. It also gave an inhibition at 10 µM [10] of 31%, an inhibition at 10 µM [11] of 20 to 29% and an inhibition at 10 µM [12] of 20 to 29%. It also gave an inhibition at 10 µM [13] of 20 to 29%, an inhibition at 10 µM [14] of 20 to 29% and an inhibition at 10 µM [15] of 20 to 29%. The inhibition at 10 µM [16] was 20 to 29%, the inhibition at 10 µM [17] was 20 to 29% and the inhibition at 10 µM [18] was 20 to 29%. The inhibition at 10 µM [19] was 20 to 29%, the inhibition at 10 µM [20] was 47% and the inhibition at 10 µM [21] was 31%. It also gave an inhibition at 10 µM [22] of 37% and an inhibition at 10 µM [23] of 20 to 29%.
